Measured values reported in patent publication US8067451B2, “Methods and medicaments for administration of ibuprofen” (Horizon Pharma USA, Inc., priority 2006, dated 2011).
Where two headings read alike, the source gives them in different places.

Experiments:
[1] = Description: (§1) For each patient the median pH during a 24 hour period (or subperiod thereof) was calculated. To measure the effect of treatments for a group of individuals, the average or mean of the measured medians for several individuals was determined (i.e., average={[M1+M2 . . . Mx]/X} where “x” is the number of individuals in the group and each “M” is the median for an individual in the group).
Samples were collected prior to initiation of dosing, and prior to administration of the second dose of study medication on Study Day 1 and Study Day 5 during both treatment periods.

[2] = Pharmacokinetic drug-drug interaction study of ibuprofen and famotidine in healthy male subjects; settings: for Bioequivalence when administered in combination compared to separate administration: 800 mg ibuprofen and 40 mg famotidine; for Difference of log-transformed AUC(last), alone versus in combination / Difference of log-transformed Cmax, alone versus in combination: bioequivalence test
clinical = settings: male, human, plasma
[3] = remark: listed apart in the source
Description: where V/F is the apparent volume of distribution, ka is the absorption rate constant, kel is the elimination rate constant and Tlag is the absorption lag time.

[4] = for Famotidine (% control): glass vials
Description: Forced degradation conditions refer to conditions of elevated temperature, or elevated temperature and humidity, intended to accelerate the process of chemical degradation. Forced degradation conditions for a period of time are used to predict the effect of storage under more benign conditions (e.g., room temperature) for a longer period of time.
After grinding, API mixture was stored in glass vials under the conditions indicated.

intragastric pH = tested on: intragastric pH
Description: The estimated pharmacodynamic parameters are listed below: Using the pharmacokinetic parameters obtained above together with the pharmacodynamic parameters above, plasma concentrations as well as intragastric pH as a function of time were simulated for various dose regimens.

gastric pH = settings: for Amount by which TID dosing exceeded BID dosing, Gastric pH (24 h), mean of group / Amount by which TID dosing exceeded BID dosing, Upright Gastric pH, mean of group / Mean reduction in time with gastric pH below 3.5, TID compared to BID / Mean reduction in time with gastric pH below 4.0, TID compared to BID: 26.6 mg TID vs 40 mg BID; for Median pH (Upright), by subject / Fraction time pH < 4, by subject / Time pH < 4, by subject: individual subjects; for Fraction time pH < 4, by subject / Time pH < 4, by subject: 24 h; for Patients with 24-hour median gastric pH below 2.5: 13 subjects
Description: Thirteen healthy subjects participated in the study.
There was a washout of at least one week between administration of the last dose of Treatment Period 1 and administration of the first dose of Treatment Period 2.
All doses of study medication were administered orally, on an open-label basis. Subjects were prohibited from taking any medications or interventions that decrease gastric acid secretion or neutralize gastric acid, and any medications that are known or suspected to cause dyspepsia or gastrointestinal ulcers, throughout the study period.
(The first day of dosing for each treatment period is designated Study Day 1, and the last day of dosing is designated Study Day […]). Subjects were followed for 14 days after administration of their last dose of study medication.
as §1

[5] = fit to mean plasma data of 40 mg Pepcid single dose study
[6] = 26.6 mg TID, 24 h of Study Day 1, all subjects n=13
[7] = 26.6 mg TID, Study Day 1, all subjects
[8] = 26.6 mg TID, Study Day 1, all subjects n=13
[9] = 26.6 mg TID, Study Day 1, normal weight subjects
[10] = 26.6 mg TID, Study Day 1, normal weight subjects n=9
[11] = 40 mg BID, 24 h of Study Day 1, all subjects n=13
[12] = 40 mg BID, Study Day 1, all subjects
[13] = 40 mg BID, Study Day 1, all subjects n=13
[14] = 40 mg BID, Study Day 1, normal weight subjects
[15] = 40 mg BID, Study Day 1, normal weight subjects n=9

## NC(N)=Nc1nc(CSCCC(N)=NS(N)(=O)=O)cs1 [famotidine, 3-[2-(diaminomethyleneamino)thiazol-4-ylmethylthio]-N-sulfamoyl propionamidine]
[1]; 26.6 mg TID vs 40 mg BID, day 5 trough
  Plasma accumulation with TID dosing: does not lead to plasma accumulation
[1]; 26.6 mg TID, Day 1, prior to second dose
  Trough plasma concentration of famotidine (mean): 9.7 ng/mL
[1]; 26.6 mg TID, Day 5, prior to second dose
  Trough plasma concentration of famotidine (mean): 15.7 ng/mL
[1]; 40 mg BID, Day 1, prior to second dose
  Trough plasma concentration of famotidine (mean): 10.5 ng/mL
[1]; 40 mg BID, Day 5, prior to second dose
  Trough plasma concentration of famotidine (mean): 15.7 ng/mL
[2]
  Bioequivalence when administered in combination compared to separate administration: bioequivalent
  Difference of log-transformed AUC(last), alone versus in combination: −0.034
  Difference of log-transformed Cmax, alone versus in combination: −0.08
[2]; administered alone, single oral dose, 800 mg ibuprofen or 40 mg famotidine
  Kel (mean ± SD): 0.19 ± 0.01
clinical; oral
  Tmax: 2.17 ± 0.93 h
  half-life: 3.49 ± 0.35 h
clinical; po
  Tmax: 1.67 ± 0.52 h
  half-life: 3.66 ± 0.19 h
[3]; fit to mean plasma data of 40 mg Pepcid single dose bioequivalence study (n=30)
  V/F (apparent volume of distribution): 241.8 L
[3]; [5]
  Tlag (absorption lag time): 0.3677 h
  ka (absorption rate constant): 0.8133 h⁻¹
  kel (elimination rate constant): 0.2643 h⁻¹
[4]; 1 wk 40° C.
  Famotidine (% control): 96.1 % control
[4]; 1 wk 60° C.
  Famotidine (% control): 121.0 % control
[4]; 2 weeks at 60° C.
  Famotidine Content (percent of target content): 98%
[4]; 2 wks 60° C.
  Famotidine (% control): 100.1 % control
Intragastric pH; sigmoid Emax fit of digitized plasma concentration vs intragastric pH, one patient (Echizen and Ishizaki)
  Emax (maximum intragastric pH): 7.80
Intragastric pH; sigmoid Emax fit, one patient
  E0 (intragastric pH at time zero): 1.88
  γ (shape factor): 4.80
Intragastric pH; sigmoid Emax fit, plasma concentration vs intragastric pH, one patient
  EC50 (Pepcid concentration at one-half of Emax): 0.0326 µg/mL
Gastric pH; all subjects
  Amount by which TID dosing exceeded BID dosing, Gastric pH (24 h), mean of group: 0.3 pH Units
  Amount by which TID dosing exceeded BID dosing, Upright Gastric pH, mean of group: 0.5 pH Units
  Mean reduction in time with gastric pH below 3.5, TID compared to BID: 19.5 min
  Mean reduction in time with gastric pH below 4.0, TID compared to BID: 23.1 min
Gastric pH; normal weight group
  Amount by which TID dosing exceeded BID dosing, Gastric pH (24 h), mean of group: 0.5 pH Units
  Amount by which TID dosing exceeded BID dosing, Upright Gastric pH, mean of group: 0.8 pH Units
  Mean reduction in time with gastric pH below 3.5, TID compared to BID: 89.3 min
  Mean reduction in time with gastric pH below 4.0, TID compared to BID: 89.9 min
Gastric pH; [6]
  Average time below pH 3.5: 693.5 min
  Average time below pH 4.0: 783.4 Minutes
Gastric pH; [7]
  Average Absolute Deviation of 24 hour median gastric pH: 0.5
  Average Absolute Deviation of pH in upright position: 0.7
  Average Absolute Deviation of time below pH 3.5: 124.7 min
  Average Absolute Deviation of time below pH 4.0: 111.9 min
  Max-Min of pH values in the upright position: 2.4 pH units
  Max-Min of time below pH 3.5: 436 min
  Max-Min of time below pH 4.0: 459 min
  Standard Deviation of 24 hour median gastric pH: 0.7
Gastric pH; [8]
  Max-Min of 24 hour median gastric pH: 1.9 pH units
  Mean of 24 hour median gastric pH: 3.6 pH units
  Mean of pH values taken in the upright position: 3.7
  Range of 24 hour median gastric pH: 2.5-4.4
  Range of pH values taken in the upright position: 2.3-4.7
  Range of time below pH 3.5: 514-950 min
  Range of time below pH 4.0: 589-1048 Minutes
Gastric pH; [9]
  Average Absolute Deviation of 24 hour median gastric pH: 0.5
  Average Absolute Deviation of time below pH 3.5: 116.7 min
  Average Absolute Deviation of time below pH 4.0: 105.4 min
  Average Absolute Deviation of upright pH values: 0.9
  Average time below pH 3.5: 662.7 min
  Average time below pH 4.0: 764.2 Minutes
  Max-Min of 24 hour median gastric pH: 1.9 pH units
  Max-Min of time below pH 3.5: 436 min
  Max-Min of time below pH 4.0: 459 min
  Max-Min of upright pH values: 2.4 pH units
  Mean of upright pH values: 3.8
  Range of time below pH 3.5: 514-950 min
  Range of time below pH 4.0: 589-1048 Minutes
  Range of upright pH values: 2.3-4.7
  Standard Deviation of 24 hour median gastric pH: 0.7
Gastric pH; [10]
  Mean of 24 hour median gastric pH: 3.6
  Range of 24 hour median gastric pH: 2.5-4.4
Gastric pH; [11]
  Average time below pH 3.5: 713.0 min
  Average time below pH 4.0: 806.5 Minutes
Gastric pH; [12]
  Average Absolute Deviation of 24 hour median gastric pH: 0.9
  Average Absolute Deviation of pH in upright position: 1.0
  Average Absolute Deviation of time below pH 3.5: 169.1 min
  Average Absolute Deviation of time below pH 4.0: 158.8 min
  Max-Min of pH values in the upright position: 3.3 pH units
  Max-Min of time below pH 3.5: 706 min
  Max-Min of time below pH 4.0: 710 min
  Standard Deviation of 24 hour median gastric pH: 1.1
Gastric pH; [13]
  Max-Min of 24 hour median gastric pH: 3.3 pH units
  Mean of 24 hour median gastric pH: 3.3 pH units
  Mean of pH values taken in the upright position: 3.2
  Range of 24 hour median gastric pH: 1.8-5.1
  Range of pH values taken in the upright position: 1.8-5.1
  Range of time below pH 3.5: 459-1165 min
  Range of time below pH 4.0: 514-1224 Minutes
Gastric pH; [14]
  Average Absolute Deviation of 24 hour median gastric pH: 0.9
  Average Absolute Deviation of time below pH 3.5: 175.1 min
  Average Absolute Deviation of time below pH 4.0: 155.7 min
  Average Absolute Deviation of upright pH values: 1.0
  Average time below pH 3.5: 752.0 min
  Average time below pH 4.0: 854.1 Minutes
  Max-Min of 24 hour median gastric pH: 2.2 pH units
  Max-Min of time below pH 3.5: 679 min
  Max-Min of time below pH 4.0: 510 min
  Max-Min of upright pH values: 2.8 pH units
  Mean of upright pH values: 3.0
  Range of time below pH 3.5: 486-1165 min
  Range of time below pH 4.0: 714-1224 Minutes
  Range of upright pH values: 1.8-4.6
  Standard Deviation of 24 hour median gastric pH: 1.1
Gastric pH; [15]
  Mean of 24 hour median gastric pH: 3.1
  Range of 24 hour median gastric pH: 1.8-4.0
Gastric pH; BID 40 mg
  Median pH (Upright), by subject: 1.8 pH Units
  Fraction time pH < 4, by subject: (69.8%)
  Time pH < 4, by subject: 1005 min
Gastric pH; BID period (40 mg)
  Patients with 24-hour median gastric pH below 2.5: three
Gastric pH; Subject 106
  Difference in Median pH (Upright), TID period vs BID period: 2.2 pH Units
  Difference in Median pH, TID period vs BID period: 2.1 pH Units
  Difference in Time pH < 4, BID period vs TID period: 268 min
Gastric pH; TID 26.6 mg
  Median pH (Upright), by subject: 4.0 pH Units
  Fraction time pH < 4, by subject: (51.2%)
  Time pH < 4, by subject: 737 min
Gastric pH; TID period (26.6 mg)
  Patients with 24-hour median gastric pH below 2.5: no patients

## CC(C)Cc1ccc(C(C)C(=O)O)cc1 (stereo not drawn) [ibuprofen, 2-(p-isobutylphenyl) propionic acid]
[2]
  Bioequivalence when administered in combination compared to separate administration: bioequivalent
  Difference of log-transformed AUC(last), alone versus in combination: 0.02
  Difference of log-transformed Cmax, alone versus in combination: 0.02
clinical; oral
  Tmax: 2.25 ± 1.89 h
clinical; po
  Tmax: 1.58 ± 0.49 h
